# Molecular target: CXCR7 (Homo sapiens (Human), UniProt P25106)
# Experiment: PathHunter CHO-K1 CXCR7 b-arrestin assay (agonistic activity)
# Type: cell-based
# Conditions: PathHunter CHO-K1 CXCR7 b-arrestin cell line
# How it was run: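 CHO-K1 cells co-expressing ProLink-tagged CXCR7 and EA-fused β-arrestin 2 (enzyme fragment complementation); compounds added in HBSS/20 mM HEPES/0.2% BSA after 3–4 h in OPTIMEM, 90 min at 37 °C. Chemiluminescent β-gal signal read after 1 h detection at room temperature; EC50 reported as geometric mean of several measurements.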
# CXCR7, sequence (P25106 whole entry): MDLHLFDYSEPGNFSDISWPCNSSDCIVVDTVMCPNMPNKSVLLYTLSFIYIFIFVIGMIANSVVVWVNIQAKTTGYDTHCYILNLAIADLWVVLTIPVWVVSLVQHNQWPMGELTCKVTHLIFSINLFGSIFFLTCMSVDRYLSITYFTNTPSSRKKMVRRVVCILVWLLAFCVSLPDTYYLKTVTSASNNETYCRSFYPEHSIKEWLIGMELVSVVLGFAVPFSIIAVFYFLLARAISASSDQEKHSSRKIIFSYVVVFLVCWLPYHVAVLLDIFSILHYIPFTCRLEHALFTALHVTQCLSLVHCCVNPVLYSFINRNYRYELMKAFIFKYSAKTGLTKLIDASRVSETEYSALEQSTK
# CXCR7, sequence (P32121 whole entry partner): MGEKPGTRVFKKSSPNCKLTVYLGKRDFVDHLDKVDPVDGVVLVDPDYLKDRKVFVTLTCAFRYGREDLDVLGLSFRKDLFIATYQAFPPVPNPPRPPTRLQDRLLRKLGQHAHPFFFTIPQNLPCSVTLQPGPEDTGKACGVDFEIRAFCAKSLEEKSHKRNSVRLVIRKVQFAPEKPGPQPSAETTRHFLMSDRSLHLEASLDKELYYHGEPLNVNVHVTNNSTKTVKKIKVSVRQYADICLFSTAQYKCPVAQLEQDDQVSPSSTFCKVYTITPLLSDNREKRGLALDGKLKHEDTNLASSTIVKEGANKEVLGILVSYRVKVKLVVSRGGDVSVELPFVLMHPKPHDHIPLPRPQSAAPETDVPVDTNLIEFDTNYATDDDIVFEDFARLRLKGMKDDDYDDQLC
row,SMILES,EC50
1,CC(C)(C)NC(=O)C1CCN(Cc2cccc(NC(=O)c3cccnc3C(F)(F)F)c2)CC1 [Example 1.231],99 nM
2,CC(C)(C)NC(=O)C1CCN(Cc2cccc(NC(=O)c3cnc4ccccc4n3)c2)CC1 [Example 1.232],3 nM
3,CC(C)(C)NC(=O)C1CCN(Cc2cccc(NC(=O)c3cnc4ccccc4c3)c2)CC1 [Example 1.233],2 nM
4,CC(C)(C)NC(=O)C1CCN(Cc2cccc(NC(=O)c3ccc4cnccc4n3)c2)CC1 [Example 1.234],2 nM
5,CC(C)(C)NC(=O)C1CCN(Cc2cccc(NC(=O)c3ccc4ccccc4n3)c2)CC1 [Example 1.235],0.9 nM
6,CC(C)(C)NC(=O)C1CCN(Cc2cccc(NC(=O)c3cnc4cc(Cl)ccc4c3)c2)CC1 [Example 1.236],5 nM
7,CC(C)(C)NC(=O)C1CCN(Cc2cccc(NC(=O)c3cccc(C(F)(F)F)c3)c2)CC1 [Example 1.237],4 nM
8,CC(C)(C)NC(=O)C1CCN(Cc2cccc(NC(=O)c3ccc(C(F)(F)F)cc3)c2)CC1 [Example 1.238],4 nM
9,CC(C)(C)NC(=O)C1CCN(Cc2cccc(NC(=O)c3ccccc3C(F)(F)F)c2)CC1 [Example 1.239],17 nM
10,CC(C)(C)NC(=O)C1CCN(Cc2cccc(NC(=O)c3cncc(C4CC4)c3)c2)CC1 [Example 1.240],3 nM
11,CCc1cncc(C(=O)Nc2cccc(CN3CCC(C(=O)NC(C)(C)C)CC3)c2)c1 [Example 1.241],4 nM
12,CC(C)(C)NC(=O)C1CCN(Cc2cccc(NC(=O)c3cc(C(F)(F)F)ccn3)c2)CC1 [Example 1.242],6 nM
13,CC(C)(C)NC(=O)C1CCN(Cc2cccc(NC(=O)Cc3ccc(Cl)cc3Cl)c2)CC1 [Example 1.244],5 nM
14,CC(C)(C)NC(=O)C1CCN(Cc2cccc(NC(=O)Cc3c(Cl)cccc3Cl)c2)CC1 [Example 1.245],1 nM
15,CC(C)(C)NC(=O)C1CCN(Cc2cccc(NC(=O)Cc3cccc(Cl)c3Cl)c2)CC1 [Example 1.246],3 nM
16,CC(C)(C)NC(=O)C1CCN(Cc2cccc(NC(=O)Cc3c(F)cccc3Cl)c2)CC1 [Example 1.247],2 nM
17,CC(C)(C)NC(=O)C1CCN(Cc2cccc(NC(=O)Cc3ccc(F)cc3Cl)c2)CC1 [Example 1.248],2 nM
18,CC(C)(C)NC(=O)C1CCN(Cc2cccc(NC(=O)Cc3cccc(C(F)(F)F)c3Cl)c2)CC1 [Example 1.249],2 nM
19,CC(C)(C)NC(=O)C1CCN(Cc2cccc(NC(=O)Cc3c(Cl)ccc(C(F)(F)F)c3Cl)c2)CC1 [Example 1.250],3 nM
20,CC(C)(C)NC(=O)C1CCN(Cc2cccc(NC(=O)Cc3c(C(F)(F)F)ccc(Cl)c3Cl)c2)CC1 [Example 1.251],3 nM
21,CC(C)(C)NC(=O)C1CCN(Cc2cccc(NC(=O)Cc3cc(F)c(Cl)cc3Cl)c2)CC1 [Example 1.252],4 nM
22,CC(C)(C)NC(=O)C1CCN(Cc2cccc(NC(=O)Cc3c(F)ccc(Cl)c3Cl)c2)CC1 [Example 1.253],4 nM
23,CC(C)(C)NC(=O)C1CCN(Cc2cccc(NC(=O)Cc3c(F)ccc(F)c3Cl)c2)CC1 [Example 1.254],2 nM
24,CC(C)(C)NC(=O)C1CCN(Cc2cccc(NC(=O)CC3CCOCC3)c2)CC1 [Example 1.255],137 nM
25,CC(C)(C)NC(=O)C1CCN(Cc2cccc(NC(=O)Cc3ccccc3Cl)c2)CC1 [Example 1.258],1 nM

row,SMILES,EC50
1,CC(C)(C)NC(=O)C1CCN(Cc2cccc(NC(=O)Cc3ccccc3)c2)CC1 [Example 1.259],4 nM
2,CC(C)(C)NC(=O)C1CCN(Cc2cccc(NC(=O)C3C(C)(C)C3(C)C)c2)CC1 [Example 1.260],0.9 nM
3,Cc1nc(CC(=O)Nc2cccc(CN3CCC(C(=O)NC(C)(C)C)CC3)c2)c(C)s1 [Example 1.261],2 nM
4,Cc1nc(C)c(CC(=O)Nc2cccc(CN3CCC(C(=O)NC(C)(C)C)CC3)c2)s1 [Example 1.262],120 nM
5,CC(C)(C)NC(=O)C1CCN(Cc2cccc(NC(=O)Cc3cnccn3)c2)CC1 [Example 1.263],143 nM
6,CC(C)(C)NC(=O)C1CCN(Cc2cccc(NC(=O)Cc3ncccn3)c2)CC1 [Example 1.264],90 nM
7,CC(C)(C)NC(=O)C1CCN(Cc2cccc(NC(=O)C3(c4ccc(Cl)cc4Cl)CC3)c2)CC1 [Example 1.268],2 nM
8,CC(C)(C)NC(=O)C1CCN(Cc2cccc(NC(=O)CC3Cc4ccccc4C3)c2)CC1 [Example 1.272],2 nM
9,CC(C)CN(C)C(=O)C1CCN(Cc2cccc(NC(=O)c3ccc(F)cc3)c2)CC1 [Example 1.273],2 nM
10,CC(C)CN(C)C(=O)C1CCN(Cc2cccc(NC(=O)c3cccc(C(F)(F)F)n3)c2)CC1 [Example 1.274],9 nM
11,CC(C)CN(C)C(=O)C1CCN(Cc2cccc(NC(=O)c3ccc(C(F)(F)F)cn3)c2)CC1 [Example 1.275],3 nM
12,CC(C)CN(C)C(=O)C1CCN(Cc2cccc(NC(=O)c3cncc(C(F)(F)F)c3)c2)CC1 [Example 1.276],6 nM
13,CC(C)CN(C)C(=O)C1CCN(Cc2cccc(NC(=O)c3cncc(F)c3)c2)CC1 [Example 1.277],18 nM
14,CC(C)CN(C)C(=O)C1CCN(Cc2cccc(NC(=O)c3cncc(Cl)c3)c2)CC1 [Example 1.278],6 nM
15,CC(C)(C)NC(=O)C1CCN(Cc2cc(Br)cc(NC(=O)c3cccc(C(F)(F)F)n3)c2)CC1 [Example 1.279],420 nM
16,COc1cc(CN2CCC(C(=O)NC(C)(C)C)CC2)cc(NC(=O)c2ccc(F)cc2)c1 [Example 1.280],409 nM
17,Cc1ccc(C(=O)Nc2cccc(CN3CCC(C(=O)NC4CCCCC4)CC3)c2)s1 [Example 1.281],3 nM
18,O=C(Nc1cccc(CN2CCC(C(=O)NC3CCCCC3)CC2)c1)c1ccc(Cl)s1 [Example 1.282],5 nM
19,CC(C)(C)c1ccc(C(=O)Nc2cccc(CN3CCC(C(=O)NC4CCCCC4)CC3)c2)s1 [Example 1.283],34 nM
20,O=C(Nc1ccnc(CN2CCC(C(=O)NC3CCCCC3)CC2)n1)c1cccc(C(F)(F)F)n1 [Example 1.284],223 nM
21,Cc1cncc(C(=O)Nc2ccnc(CN3CCC(C(=O)NC4CCCCC4)CC3)n2)c1 [Example 1.285],199 nM
22,CC(C)(C)NC(=O)C1CCN(Cc2nccc(NC(=O)c3cccc(C(F)(F)F)n3)n2)CC1 [Example 1.286],265 nM
23,O=C(Nc1nc(CN2CCC(C(=O)NC3CCCC3)CC2)cs1)c1ccc(Cl)cc1 [Example 1.293],81 nM
24,Cc1cncc(C(=O)Nc2nc(CN3CCC(C(=O)NC4CCCC4)CC3)cs2)c1 [Example 1.294],408 nM
25,COc1ccc(NC(=O)c2cccc(C(F)(F)F)n2)cc1CN1CCC(C(=O)NC(C)(C)C)CC1 [Example 1.296],6 nM

row,SMILES,EC50
1,COc1ccc(NC(=O)c2cncc(C)c2)cc1CN1CCC(C(=O)NC(C)(C)C)CC1 [Example 1.297],98 nM
2,COc1ccc(NC(=O)c2ccc(F)cc2)cc1CN1CCC(C(=O)NC(C)(C)C)CC1 [Example 1.298],19 nM
3,Cc1cncc(C(=O)Nc2ccc(C)c(CN3CCC(C(=O)NC(C)(C)C)CC3)c2)c1 [Example 1.299],3 nM
4,Cc1ccc(NC(=O)c2ccc(F)cc2)cc1CN1CCC(C(=O)NC(C)(C)C)CC1 [Example 1.300],1 nM
5,Cc1ccc(CN2CCC(C(=O)NC(C)(C)C)CC2)cc1NC(=O)c1cccc(C(F)(F)F)n1 [Example 1.301],2 nM
6,Cc1cncc(C(=O)Nc2cc(CN3CCC(C(=O)NC(C)(C)C)CC3)ccc2C)c1 [Example 1.302],6 nM
7,Cc1ccc(CN2CCC(C(=O)NC(C)(C)C)CC2)cc1NC(=O)c1ccc(F)cc1 [Example 1.303],3 nM
8,COc1ccc(CN2CCC(C(=O)NC(C)(C)C)CC2)cc1NC(=O)c1cccc(C(F)(F)F)n1 [Example 1.304],4 nM
9,COc1ccc(CN2CCC(C(=O)NC(C)(C)C)CC2)cc1NC(=O)c1cncc(C)c1 [Example 1.305],7 nM
10,COc1ccc(CN2CCC(C(=O)NC(C)(C)C)CC2)cc1NC(=O)c1ccc(F)cc1 [Example 1.306],4 nM
11,CC(C)(C)NC(=O)C1CCN(Cc2cccc(NC(=O)C3(c4ccccc4)CC3)c2)CC1 [Example 1.309],1 nM
12,CC(C)(C)NC(=O)C1CCN(Cc2cccc(NC(=O)C3(c4ccc(Cl)cc4)CC3)c2)CC1 [Example 1.310],2 nM
13,CC(C)(C)NC(=O)C1CCN(Cc2cccc(NC(=O)C(C)(C)c3ccccc3)c2)CC1 [Example 1.311],1 nM
14,CC(C(=O)Nc1cccc(CN2CCC(C(=O)NC(C)(C)C)CC2)c1)c1ccc(Cl)cc1 (stereo not drawn) [Example 1.312],8 nM
15,Cc1c(CN2CCC(C(=O)NC(C)(C)C)CC2)cccc1NC(=O)c1ccc(F)cc1 [Example 1.313],19 nM
16,Cc1cncc(C(=O)Nc2cccc(CN3CCC(C(=O)NC(C)(C)C)CC3)c2C)c1 [Example 1.314],145 nM
17,Cc1c(CN2CCC(C(=O)NC(C)(C)C)CC2)cccc1NC(=O)c1cccc(C(F)(F)F)n1 [Example 1.315],193 nM
18,Cc1cc(CN2CCC(C(=O)NC(C)(C)C)CC2)cc(NC(=O)c2cccc(C(F)(F)F)n2)c1 [Example 1.316],36 nM
19,Cc1cc(CN2CCC(C(=O)NC(C)(C)C)CC2)cc(NC(=O)c2cncc(C)c2)c1 [Example 1.317],76 nM
20,Cc1cc(CN2CCC(C(=O)NC(C)(C)C)CC2)cc(NC(=O)c2ccc(F)cc2)c1 [Example 1.318],13 nM
21,COc1c(CN2CCC(C(=O)NC(C)(C)C)CC2)cccc1NC(=O)c1cccc(C(F)(F)F)n1 [Example 1.319],45 nM
22,COc1c(CN2CCC(C(=O)NC(C)(C)C)CC2)cccc1NC(=O)c1cncc(C)c1 [Example 1.320],48 nM
23,COc1c(CN2CCC(C(=O)NC(C)(C)C)CC2)cccc1NC(=O)c1ccc(F)cc1 [Example 1.321],6 nM
24,CC(C)(C)NC(=O)C1CCN(Cc2cccc(NC(=O)c3cccnn3)c2)CC1 [Example 1.322],4 nM
25,CC(C)(C)NC(=O)C1CCN(Cc2cccc(NC(=O)c3ccnnc3)c2)CC1 [Example 1.323],66 nM
